Data reported in US8697385B1, “Protein controlling synthesis of collagen and associated methods” (Florida State University Research Foundation, Inc., priority 2009, dated 2014).

What was measured:
[1] = tested on: myosin IIB; assay: Western blot analysis of total nonmuscle myosin IIB level; type: cell-based, human; conditions: Western blot; ML-7 40 μM 16 h
Description: (§1) ML-7, blebbistatin, cytochalasin B, puromycin, and cycloheximide were purchased from Sigma. ML-7 was used at 40 μM, blebbistatin was used at 100 μM, and cytochalasin B was used at 20 μM. Cells were incubated with the drugs for 16 h before analysis. Puromycin (200 μg/ml) and cycloheximide (100 μg/ml) were added to the cells for 2 h. Human lung fibroblasts have been described previously.16 Scleroderma fibroblasts were purchased from the European Collection of Cell Cultures (cell line BM0070) and derived from the skin of a scleroderma patient. MEFs were derived from knock-in mice in which the 5′SL of the collagen α1(I) gene has been mutated (Parsons et al., submitted). Several independent cell isolates were used throughout the study. All cells were cultured in Dulbecco's modified Eagle's medium supplemented with 10% fetal bovine serum for up to 10 passages. […] [^32P]dCTP was included in the PCR step to label the products, which were resolved on sequencing gels, as described previously.^8,31,49,50 When RNA from polysomal fractions was analyzed, an equal aliquot of each fraction was used. […]
(§2) Protein concentration was estimated by the Bradford assay, with bovine serum albumin as standard.^51 Western blot analyses of cellular proteins were performed using 50 μg of protein. […] The medium was collected, and an aliquot was analyzed directly by Western blot analysis. […]

[2] = tested on: primary scleroderma skin fibroblasts; assay: Western blot analysis of cellular and medium collagen polypeptides, scleroderma fibroblasts; type: cell-based, human; conditions: 16 h, ML-7 40 μM, blebbistatin 100 μM
Description: ML-7, blebbistatin, cytochalasin B, puromycin, and cycloheximide were purchased from Sigma. ML-7 was used at 40 μM, blebbistatin was used at 100 μM, and cytochalasin B was used at 20 μM. Cells were incubated with the drugs for 16 h before analysis. Puromycin (200 μg/ml) and cycloheximide (100 μg/ml) were added to the cells for 2 h. Human lung fibroblasts have been described previously.16 Scleroderma fibroblasts were purchased from the European Collection of Cell Cultures (cell line BM0070) and derived from the skin of a scleroderma patient. MEFs were derived from knock-in mice in which the 5′SL of the collagen α1(I) gene has been mutated (Parsons et al., submitted). Several independent cell isolates were used throughout the study. All cells were cultured in Dulbecco's modified Eagle's medium supplemented with 10% fetal bovine serum for up to 10 passages. Plasmid constructs and adenovirus preparation. The HA-tagged LARP6 clone and the deletion mutants have been described previously.^16 Adenoviruses were constructed by recloning of the constructs into the pAdCMVTRACK vector, followed by recombination with the pAdEasy vector and amplification, as described previously.^48 Expression of each construct was verified by Western blot analysis. The viruses made express both the full-size test protein and the green fluorescent protein (GFP), which is encoded by an independent transcription unit.^48 Expression of GFP served as control for viral transduction. RT-PCR analysis Total cellular RNA was isolated using an RNA isolation kit (Sigma). RT-PCRs were performed with 100 ng of total RNA or using rTth reverse transcriptase (Boca Scientific, Boca Raton, Fla.). [^32P]dCTP was included in the PCR step to label the products, which were resolved on sequencing gels, as described previously.^8,31,49,50 When RNA from polysomal fractions was analyzed, an equal aliquot of each fraction was used. The number of cycles was adjusted to within the linear range of the reaction. The primers used for RT-PCR were as follows: h-collagen α1(I), 5′ primer […] (SEQ ID NO:3) and 3′ primer […] (SEQ ID NO:4); h-collagen α2(I), 5′ primer […] (SEQ ID NO:5) and 3′ primer […] (SEQ ID NO:6).
Protein concentration was estimated by the Bradford assay, with bovine serum albumin as standard.^51 Western blot analyses of cellular proteins were performed using 50 μg of protein. For Western blot analysis of secreted proteins, equal numbers of cells were seeded, serum-free medium was added to the cells, and incubation continued for 3 h. The medium was collected, and an aliquot was analyzed directly by Western blot analysis. Use of serum free medium in collecting secreted proteins is essential because fetal calf serum contains substantial amounts of collagen and fibronectin.^15,31 For immunostaining, cells were seeded onto glass coverslips. After treatment, the cells were fixed with 4% paraformaldehyde for 30 min at room temperature and permeabilized with 0.5% Triton X-100 in phosphatebuffered saline (PBS) for 10 min. After the cells had been blocked with 10% goat serum/5% bovine serum albumin in PBS for 1 h at room temperature, they were incubated with primary antibody overnight at 4° C., washed, and visualized with AlexaFluor594-conjugated or Cy-2-conjugated secondary antibodies. The cells were mounted using VECTASHIELD mounting medium containing […], 6-diamidino-2-phenylindole (Vector Laboratories), and images were taken by a Leica TCS SP2 AOBS laser confocal microscope equipped with a Chameleon Ti: Sapphire multiphoton laser. Optical sections were processed with LCSLite software.
To assess the role of nonmuscle myosin in collagen synthesis, we disrupted nonmuscle myosin filaments in two different cell types: primary human lung fibroblasts and primary scleroderma skin fibroblasts. These cells are responsible for lung and skin fibrosis. […]

[3] = tested on: scleroderma fibroblasts; assay: Apoptosis of primary scleroderma fibroblasts; type: cell-based; conditions: ML-7 did not have an effect
Text: To assess the role of nonmuscle myosin in collagen synthesis, we disrupted nonmuscle myosin filaments in two different cell types: primary human lung fibroblasts and primary scleroderma skin fibroblasts. These cells are responsible for lung and skin fibrosis. […] To assess the effect of ML-7 on collagen protein synthesis and secretion, we analyzed the levels of collagen α1(I) and α2(I) polypeptides in the intracellularly space and in the medium using Western blot analysis and chain-specific antibodies.^12,15,31-33 ML-7 treatment profoundly affected the secretion of type I collagen, but the effect differed in the two types of primary fibroblasts. […] To assess if the secreted α1(I) polypeptides had been secreted as disulfide-bonded homotrimers, we performed Western blot analysis under nonreducing conditions (FIG. 3d). […] However, since α2(I) polypeptide was absent in the cell medium of ML-7-treated cells, the bands must represent disulfide-bonded collagen α1(I) chains. The α2(I) antibody could not recognize the polypeptide under nonreducing conditions, so we could not directly test its presence in S—S bonded collagen. Since there are reports that ML-7 can cause apoptosis of epithelial cells, we tested if ML-7 caused apoptosis of the primary fibroblasts. […] Therefore, we concluded that increased apoptosis is not responsible for the observed effects of ML-7. […]

[4] = tested on: nonmuscle myosin filaments; assay: Immunostaining of nonmuscle myosin IIB filaments in scleroderma fibroblasts; type: cell-based, human; conditions: ML-7, compared with effect in lung fibroblasts
Description: as §1, §2

[5] = tested on: lung fibroblasts; assay: Immunostaining for subcellular colocalization of collagen α1(I) and α2(I) polypeptides; type: cell-based, human; conditions: ML-7-treated vs control cells (high degree of colocalization)
Description: as §1, §2

`O=S(=O)(c1cccc2c(I)cccc12)N1CCCNCC1` [ML-7] was tested, and the “total level of myosin IIB” value [1] was “remained unchanged”, the “intracellular level of collagen α1(I) polypeptide” value [2] was “not changed” and the “intracellular level of collagen α2(I) polypeptide” value [2] was “reduced”. The “secretion of collagen α1(I) polypeptide into the medium” value ([2]; cytochalasin B 20 μM) was “barely detectable”, the “secretion of collagen α2(I) polypeptide into the medium” value ([2]; cytochalasin B 20 μM) was “absent” and the secretion/expression of fibronectin ([2]; cytochalasin B 20 μM) was “not affected”. For the same compound, the “percentage of apoptotic cells” value [3] was 0.3%, the “myosin IIB immunostaining (filaments)” value [4] was “same effect” and the “subcellular colocalization of α1(I) and α2(I) polypeptides” value [5] was “a significant fraction of α2(I) polypeptide (red) was not colocalized with α1(I) polypeptide”.
